According to ChEMBL document CHEMBL5131467, “Multivalent peptide dendrimers inhibit the fusion of viral-cellular membranes and the cellular NF-κB signaling pathway” (Eur J Med Chem, 2022):
Where a SMILES comes first, the peptide text is derived from it. Bridges are numbered along the chain shown (N, C = ends). Roman numbers before positions name the chains, in order. Side-chain parts run from the residue outwards. The star is where a group is joined. Acetyl(2-naphthyl) = O=C(Cc1ccc2ccccc2c1)*; Fmoc = O=C(OCC1c2ccccc2-c2ccccc21)*

Tested on: Influenza A virus
Assay: Antiviral activity against Influenza A virus (A/Puerto Rico/8/1934(H1N1)) NA-H374Y mutant infected in MDCK cells incubated for 1 hr by MTT assay
Format: functional, organism-based

Row | Structure (SMILES) | IC50 [µM]
1 | NCCCC[C@H](NC(=O)Cc1ccc2ccccc2c1)C(=O)N[C@@H](CCCCN)C(=O)N[C@@H](Cc1c[nH]c2ccccc12)C(=O)N[C@@H](CCCCN)C(=O)NCCCC[C@H](NC(=O)[C@H](CCCCN)NC(=O)[C@H](Cc1c[nH]c2ccccc12)NC(=O)[C@H](CCCCN)NC(=O)[C@H](CCCCN)NC(=O)Cc1ccc2ccccc2c1)C(=O)NCCCC[C@H](NC(=O)[C@H](CCCCNC(=O)[C@H](CCCCN)NC(=O)[C@H](Cc1c[nH]c2ccccc12)NC(=O)[C@H](CCCCN)NC(=O)[C@H](CCCCN)NC(=O)Cc1ccc2ccccc2c1)NC(=O)[C@H](CCCCN)NC(=O)[C@H](Cc1c[nH]c2ccccc12)NC(=O)[C@H](CCCCN)NC(=O)[C@H](CCCCN)NC(=O)Cc1ccc2ccccc2c1)C(=O)NCC(=O)O (I: {Acetyl(2-naphthyl)}-KKWKK([Lys-Trp-Lys-Lys-Acetyl(2-naphthyl)])KG-OH / II: {Acetyl(2-naphthyl)}-KKWKK([Lys-Trp-Lys-Lys-Acetyl(2-naphthyl)]); amide I:6-II:C) | 0.16
2 | CCOC(=O)c1c(CSc2ccccc2)n(C)c2cc(Br)c(O)c(CN(C)C)c12.Cl | 0.6
3 | NCCCC[C@H](NC(=O)OCC1c2ccccc2-c2ccccc21)C(=O)N[C@@H](CCCCN)C(=O)N[C@@H](Cc1c[nH]c2ccccc12)C(=O)N[C@@H](CCCCN)C(=O)NCCCC[C@H](NC(=O)[C@H](CCCCN)NC(=O)[C@H](Cc1c[nH]c2ccccc12)NC(=O)[C@H](CCCCN)NC(=O)[C@H](CCCCN)NC(=O)OCC1c2ccccc2-c2ccccc21)C(=O)NCCCC[C@H](NC(=O)[C@H](CCCCNC(=O)[C@H](CCCCN)NC(=O)[C@H](Cc1c[nH]c2ccccc12)NC(=O)[C@H](CCCCN)NC(=O)[C@H](CCCCN)NC(=O)OCC1c2ccccc2-c2ccccc21)NC(=O)[C@H](CCCCN)NC(=O)[C@H](Cc1c[nH]c2ccccc12)NC(=O)[C@H](CCCCN)NC(=O)[C@H](CCCCN)NC(=O)OCC1c2ccccc2-c2ccccc21)C(=O)NCC(=O)O (I: Fmoc-KKWKK([Lys-Trp-Lys-Lys-Fmoc])KG-OH / II: Fmoc-KKWKK([Lys-Trp-Lys-Lys-Fmoc]); amide I:6-II:C) | 0.54
